Assay results taken from paper PMC8001704, “A Review of Red Yeast Rice, a Traditional Fermented Food in Japan and East Asia: Its Characteristic Ingredients and Application in the Maintenance and Improvement of Health in Lipid Metabolism and the Circulatory System” (Molecules, 2021).
Like-named read-outs stand apart in the source and are kept apart here. Blank lines part the entries; values can stand above or below the compound they belong to.

Key:
[1] = test system: presynaptic GABA receptors; parameters: method as in PMID 10369462, PMID 11906718; conditions: through reduction of adrenergic vasoconstriction; cited from earlier work
[2] = parameters: method as in PMID 16256107, PMID 8930162; conditions: cited from earlier work
[3] = Pharmacokinetics of monacolin K in plasma after single oral administration of purified monacolin K or red yeast rice; assay type: in vivo, male SD rats; conditions: for AUC(0-t) / Cmax: male, SD, rat, po
Text: Recently, we compared the pharmacokinetics of monacolin K in blood after oral administration of purified monacolin K (lactone form, 99% purity) and red yeast rice produced by solid-state fermentation in male SD rats (7 weeks old). Most of the monacolin K in the plasma was detected in its acid form: both in the monacolin K-administered group and the red yeast rice -administered group. […] The medicinal benefit of red yeast rice is considered to be different to that of monacolin K alone. […] Since red yeast rice contains various ingredients, synergistic effects are expected.
Figure 14 Plasma concentrations of lactone form and acid form of monacolin K after single administration of purified monacolin K or red yeast rice (40 mg/kg monacolin K or dose of red yeast rice equivalent to 40 mg/kg monacolin K) in male SD rats (7 weeks old). Each bar indicates the mean ± standard deviation, quantified according to the reference method.

[4] = parameters: method as in PMID 27014344, doi:10.17546/msd.58298; conditions: cited from earlier work
[5] = test system: Rabbits fed on a high-lipid diet; parameters: method as in PMID 1376794; conditions: cited from earlier work
[6] = test system: Patients with hypercholesterolemia; parameters: method as in PMID 9456275; conditions: cited from earlier work
[7] = test system: Human umbilical vein endothelial cells (HUVECs); parameters: method as in PMID 16141529; conditions: cited from earlier work
Hypertensive model mice = test system: Hypertensive model mice; parameters: method as in PMID 10405198; conditions: cited from earlier work
experimental animals = test system: experimental animals; parameters: method as in PMID 22929438; conditions: Several studies using experimental animals; cited from earlier work
Cardiac myocytes = test system: Cardiac myocytes; parameters: method as in PMID 11444504; conditions: cited from earlier work
[8] = test system: Squamous epithelial cancer cells; parameters: method as in PMID 20562912; conditions: cited from earlier work
[9] = test system: Mesenchymal stem cells derived from rat bone marrow; parameters: method as in PMID 17497701; conditions: cited from earlier work
[10] = parameters: method as in PMID 23675421, PMID 7830729; conditions: cited from earlier work
cholesterol synthesis = conditions: cited from earlier work
[11] = parameters: method as in PMID 27422746; conditions: cited from earlier work
[12] = test system: peroxisome proliferator-activated receptors (PPARs), e.g., PPARα; parameters: method as in PMID 24275089; conditions: cited from earlier work
[13] = plasma, single administration, 40 mg/kg monacolin K or equivalent, individual rats 101-103, 201-203, 40 mg/kg

SMILES: NCCCC(=O)O [GABA, γ-amino butyric acid]
- effect on blood pressure [1]: hypotensive effect
- increases in blood pressure [2]: suppresses
- sodium excretion from the kidneys [2]: promotes

- form in which most of the monacolin K in the plasma was detected ([3]; after oral administration, male SD rats): acid form
- AUC(0-t) ([3]; plasma, 40 mg/kg, plasma, single administration, 40 mg/kg monacolin K or equivalent dose of red yeast rice, male SD rats, mean, read-out: AUC0–4h of monacolin K lactone, Mean): 2.48 ng·h/mL
- Cmax ([3]; plasma, 40 mg/kg, plasma, single administration, 40 mg/kg monacolin K or equivalent dose of red yeast rice, male SD rats, mean, read-out: Cmax of monacolin K lactone, Mean): 2.48 ng/mL
- AUC(0-t) ([3]; plasma, 40 mg/kg, plasma, single administration, 40 mg/kg monacolin K or equivalent, individual rats 101-103, 201-203, read-out: AUC0–4h of monacolin K lactone, individual animals): 3.11 ng·h/mL
- Cmax ([3]; plasma, 40 mg/kg, plasma, single administration, 40 mg/kg monacolin K or equivalent, individual rats 101-103, 201-203, read-out: Cmax of monacolin K lactone, individual animals): 3.11 ng/mL
- AUC0–4h of monacolin K lactone, individual animals [3, 13]: 1.85 ng·h/mL
- Cmax of monacolin K lactone, individual animals [3, 13]: 1.85 ng/mL
SMILES: CC[C@H](C)C(=O)O[C@H]1C[C@@H](C)C=C2C=C[C@H](C)[C@H](CC[C@@H]3C[C@@H](O)CC(=O)O3)[C@H]21 [Monacolin K, monacolin K]
- plasma viscosity [4]: decrease plasma viscosity
- Effect of Monacolin K, atheroma formation [5]: Decrease in number of plaques in the aorta and lung artery
- Effect of Monacolin K, atheroma formation [6]: Inhibition of platelet aggregation, macrophage foam cell formation and LDL oxidation
- Effect of Monacolin K, atheroma formation [7]: Inhibition of NF-KB activation by CRP
- Effect of Monacolin K, blood circulation (Hypertensive model mice): Increase in renal blood flow
- Effect of Monacolin K, blood circulation (experimental animals): Increase in cerebral blood flow and cerebral vasomotor response
- Effect of Monacolin K, NOS signaling pathway (Cardiac myocytes): Increase of IL-1 induced production of nitrite (Increase in NOS expression and NO production mediated by Rho inhibition)
- Effect of Monacolin K, NOS signaling pathway [8]: Induction of expression of Rho family proteins
- Effect of Monacolin K, NOS signaling pathway [9]: Activation (phosphorylation) of AI3K/Akt pathway and MEK 1/2 pathway
- oxidation of LDL [10]: inhibits
- vascular endothelial function (vasoconstrictor reaction) ([10]; in hyperlipidemia): improves
- inhibition of cholesterol synthesis (cholesterol synthesis): potent inhibitor of cholesterol synthesis

SMILES: C/C=C/C1=CC2=C(CO1)C(=O)[C@]1(C)OC(=O)[C@H](C(=O)CCCCCCC)[C@H]1C2 [ankaflavin]
- LDL-cholesterol oxidation [11]: suppressed
- action on PPARs, e.g., PPARα [12]: agonist

SMILES: O=C1[C@H](CC[C@H](O)c2ccc(F)cc2)[C@@H](c2ccc(O)cc2)N1c1ccc(F)cc1 [ezetimibe]
- plasma viscosity [4]: decrease plasma viscosity

SMILES: C/C=C/C1=CC2=C(CO1)C(=O)[C@]1(C)OC(=O)[C@H](C(=O)CCCCC)[C@H]1C2 [monascin]
- LDL-cholesterol oxidation [11]: suppressed
- action on PPARs, e.g., PPARα [12]: agonist
